Measured values reported in patent US20200017752A1, “Use Of A Composition Containing At Least One Biodegradable Sugar-Amide-Compound In Combination With At Least One Sulfur-Based Synergist For Corrosion Inhibition Of A Metallic Equipment In Oilfield Applications” (Clariant International Ltd., priority 2016, published 2020).

Assays:
[1] = Corrosion test, rotating cylinder electrode (RCE), LPR; details: 150° F., 2000 RPM, synthetic brine, 100% CO2, 12 ppm total inhibitor, vs 2 hr baseline
Description: In order to evaluate the corrosion inhibition efficacy of the formulations, two different test methods were employed: rotating cylinder electrode (RCE) tests and high pressure, high temperature (HPHT) autoclave weight loss tests. For all testing, the following standard brine composition was used (as outlined in table 3):
A gas composition of 100% CO2 was used throughout testing.
The metallurgy of the coupons tested was C1018 carbon steel for RCE testing and HPHT autoclave testing. Coupons were polished mechanically using 320 grit silicon-carbide (SiC) paper, 400 grit SiC paper, then 600 grit SIC paper and rinsed with water then acetone prior to testing.
The rotating cylinder electrode (RCE) tests were conducted in Pyrex™ glass reaction kettles that were heated to 150° F. The testing solution was comprised of 900 mL of brine. The electrode rotation rate was set at 2000 RPM, which generated a wall shear stress of 7.0 Pa. Linear polarization resistance (LPR) measurements were made with a Gamry electrochemical measurement system. The working electrode was made of a 1018 carbon steel (CS) cylinder with a surface area of 3.16 cm^2. A Hastelloy C276 electrode was used as a pseudo-reference, and a titanium rod was used as the counter electrode. […] The baseline corrosion rate corresponds to the blank corrosion value. Upon completion of the tests, the electrodes were cleaned in an inhibited acid bath according to ASTM G1 C.3.5, and weighed to 0.1 mg.

Algae = experiment: Aquatic toxicity testing, 72 hr Algae EC50; assay type: cell-based
Procedure: (§1) Firstly the environmental data were determined according to OECD 306 biodegradability and aquatic toxicity testing on the glucamides and the result is outlined in Tables 1 and 2.

[2] = Marine BODIS biodegradation
Procedure: as §1

Row | Compound | Protection 2 hr after Cl dose [1] [%] | Protection Final 3 hr [1] [%] | OECD 306 biodegradation Day 7 (OECD 306 biodegradation) [%] | OECD 306 biodegradation Day 14 (OECD 306 biodegradation) [%] | OECD 306 biodegradation Day 21 (OECD 306 biodegradation) [%] | OECD 306 biodegradation Day 28 (OECD 306 biodegradation) [%] | 72 hr Algae EC50, Definitive result (Algae) [µg/mL] | 72 hr Algae EC50, Range-finding result (Algae) [µg/mL] | Marine BODIS biodegradation Day 7 [2] [%] | Marine BODIS biodegradation Day 14 [2] [%] | Marine BODIS biodegradation Day 21 [2] [%] | Marine BODIS biodegradation Day 28 [2] [%]
1 | CCCCCCCC/C=C\CCCCCCCC(=O)N(C)CC1OC(CO)C(O)C1O (centres unmarked) [Glucamide #6] | 76.7 | 94.2 |  |  |  |  |  |  |  |  |  | 
2 | N.N.O=S(O)(O)=S [ATS, Ammoniumthiosulfate] | 75.6 | 91.2 |  |  |  |  |  |  |  |  |  | 
3 | CCCCCCCCCC(=O)N(C)CC(O)C(O)C(O)C(O)CO (centres unmarked) [Glucamide #1] | 72.1 | 92.7 | 15 | 25 | 33 | 31 | 165.24 | 335.40 |  |  |  | 
4 | CCCCCCCC/C=C\CCCCCCCCN[C@@H](CCSC)C(=O)O [OMet, N-Oleyl-Methionine] | 77.6 | 92.7 | 60 | 60 | 60 | 60 |  |  |  |  |  | 
5 | CC(C)CCC(C)CCC(C)CC(=O)N(C)CC(O)C(O)C(O)C(O)CO (centres unmarked) [Glucamide #2] | 79.1 | 93.8 |  |  |  |  |  |  |  |  |  | 
6 | O=C([O-])c1ccccc1.[Na+] [Reference, sodium benzoate, reference compound] |  |  | 78 | 74 | 86 | 68 |  |  | 66 | 77 | 81 | 83
7 | CCCCCCCCCC(=O)N(C)CC1OC(CO)C(O)C1O (centres unmarked) [Glucamide #3] | 73.4 | 93.5 |  |  |  |  |  |  |  |  |  | 
8 | NC(N)=S [TU, Thiourea] |  |  | 19 | 32 | 20 | 55 |  |  |  |  |  | 
9 | OCCS [MET, Mercaptoethanol] | 74.4 | 91.4 | 5 | 6 | 8 | 17 |  |  |  |  |  | 
10 | N.O=C(O)CS [ATG, Ammonium Thioglycolate] | 71.8 | 91.4 | 9 | 20 | 33 | 39 |  |  |  |  |  | 
11 | CC(C)CCC(C)CCC(C)CC(=O)N(C)CC1OC(CO)C(O)C1O (centres unmarked) [Glucamide #4] | 76.0 | 94.3 |  |  |  |  |  |  |  |  |  | 
12 | CCCCCCCC/C=C\CCCCCCCC(=O)N(C)CC(O)C(O)C(O)C(O)CO (centres unmarked) [Glucamide #5] | 75.7 | 94.0 |  |  |  |  | 4.55 | 6.199 | 23 | 33 | 37 | 42
